From US12509445B2, “Herbicidally active 4-cyclopropyl-6-[4-(trifluormethyl)pyrazol-1-yl)]pyrimidines” (Bayer Aktiengesellschaft, priority 2019, dated 2025)

Key:
Format in all cases: in vivo
[1] = tested on: Echinochloa crus-galli (ECHCG); experiment: Post-emergence herbicidal action; settings: for Herbicidal action against ECHCG: 80 g of a.i./ha, comparative test; for Post-emergence action ECHCG: 320 g/ha, visual rating after about 3 weeks vs untreated controls, 100% = plants have died
Method: (§1) Seeds of monocotyledonous and dicotyledonous weeds and crop plants are placed in sandy loam in plastic or organic plant pots, covered with soil and cultivated in a greenhouse under controlled growth conditions. 2 to 3 weeks after sowing, the test plants are treated at the one-leaf stage. The compounds of the invention, formulated in the form of wettable powders (WP) or as emulsion concentrates (EC), are then sprayed onto the green parts of the plants as aqueous suspension or emulsion with addition of 0.5% additive at a water application rate of 600 l/ha (converted). After the test plants have been kept in the greenhouse under optimum growth conditions for about 3 weeks, the activity of the preparations is rated visually in comparison to untreated controls. For example, 100% activity=the plants have died, 0% activity=like control plants.
(§2) The abbreviations used here have the following meanings: • ABUTH Abutilon theophrasti • AMARE Amaranlhus retroflexus • CYPES Cyperus serotinus • ECHCGEchinocloa crus galli • LOLRI Lolium rigidum Gaudin • PHBPU Pharbitis purpurcum • SETVI Setaria viridis • VERPE Veronica persica • ALOMY Alopccurus myosuroides • AVEFA Avena fatua • DIGSA Digitaria sanguinalis • LOLMU Lolium multiflorum • MATIN Matricaria inodora • POLCO Polygonum convolvulus • STEME Stellaria media • VIOTR Viola tricolor
(§3) The compounds according to the invention were tested by the post-emergence and pre-emergence methods under the conditions described above for comparative purposes with the structurally closest compounds known from WO 2005/089551 A1 (D1).

Setaria viridis (SETVI) [2] = experiment: Post-emergence herbicidal action; settings: for Herbicidal action against SETVI: 80 g of a.i./ha, comparative test; for Post-emergence action SETVI: 320 g/ha, visual rating after about 3 weeks vs untreated controls, 100% = plants have died
Method: as §1, §2, §3

[3] = tested on: Matricaria inodora (MATIN); experiment: Post-emergence herbicidal action; settings: for Herbicidal action against MATIN: 80 g of a.i./ha, comparative test
Method: as §1, §2, §3

Stellaria media (STEME) [4] = experiment: Post-emergence herbicidal action; settings: for Post-emergence action STEME: 320 g/ha, visual rating after about 3 weeks vs untreated controls, 100% = plants have died
Method: as §1, §2, §3

[5] = tested on: Alopecurus myosuroides (ALOMY); experiment: Post-emergence herbicidal action
Method: as §1, §2, §3

[6] = tested on: Echinochloa crus-galli (ECHCG); experiment: Pre-emergence herbicidal action; settings: for Herbicidal action against ECHCG: 80 g of a.i./ha, comparative test
Text: as §2
(§4) Seeds of monocotyledonous and dicotyledonous weed plants and crop plants are placed in plastic or organic plant pots and covered with soil. The compounds of the invention, formulated in the form of wettable powders (WP) or as emulsion concentrates (EC), are then applied onto the surface of the covering soil as aqueous suspension or emulsion with addition of 0.5% additive at a water application rate of 600 l/ha (converted). After the treatment, the pots are placed in a greenhouse and kept under good growth conditions for the trial plants. After about 3 weeks, the effect of the preparations is scored visually in comparison with untreated controls as percentages. For example, 100% activity=the plants have died, 0% activity=like control plants.
as §3

[7] = tested on: Polygonum convolvulus (POLCO); experiment: Pre-emergence herbicidal action; settings: for Herbicidal action against POLCO: 80 g of a.i./ha, comparative test; for Pre-emergence action POLCO: 320 g/ha, visual scoring after about 3 weeks vs untreated controls, 100% = plants have died
Text: as §2, §4, §3

Setaria viridis (SETVI) [8] = experiment: Pre-emergence herbicidal action; settings: for Herbicidal action against SETVI: 80 g of a.i./ha, comparative test; for Pre-emergence action SETVI: 320 g/ha, visual scoring after about 3 weeks vs untreated controls, 100% = plants have died
Text: as §2, §4, §3

[9] = tested on: Matricaria inodora (MATIN); experiment: Pre-emergence herbicidal action; settings: for Herbicidal action against MATIN: 80 g of a.i./ha, comparative test; for Pre-emergence action MATIN: 320 g/ha, visual scoring after about 3 weeks vs untreated controls, 100% = plants have died
Text: as §2, §4, §3

Stellaria media (STEME) [10] = experiment: Pre-emergence herbicidal action; settings: for Herbicidal action against STEME: 80 g of a.i./ha, comparative test; for Pre-emergence action STEME: 320 g/ha, visual scoring after about 3 weeks vs untreated controls, 100% = plants have died
Text: as §2, §4, §3

[11] = tested on: Alopecurus myosuroides (ALOMY); experiment: Pre-emergence herbicidal action; settings: for Herbicidal action against ALOMY: 80 g of a.i./ha, comparative test; for Pre-emergence action ALOMY: 320 g/ha, visual scoring after about 3 weeks vs untreated controls, 100% = plants have died
Text: as §2, §4, §3

Viola tricolor (VIOTR) [12] = experiment: Pre-emergence herbicidal action; settings: for Herbicidal action against VIOTR: 80 g of a.i./ha, comparative test; for Pre-emergence action VIOTR: 320 g/ha, visual scoring after about 3 weeks vs untreated controls, 100% = plants have died
Text: as §2, §4, §3

[13] = tested on: Amaranthus retroflexus (AMARE); experiment: Post-emergence herbicidal action; settings: 320 g/ha, visual rating after about 3 weeks vs untreated controls, 100% = plants have died
Method: as §1, §2

Viola tricolor (VIOTR) [14] = experiment: Post-emergence herbicidal action; settings: 320 g/ha, visual rating after about 3 weeks vs untreated controls, 100% = plants have died
Method: as §1, §2

Veronica persica (VERPE) [15] = experiment: Post-emergence herbicidal action; settings: 320 g/ha, visual rating after about 3 weeks vs untreated controls, 100% = plants have died
Method: as §1, §2

[16] = tested on: Digitaria sanguinalis (DIGSA); experiment: Pre-emergence herbicidal action; settings: 320 g/ha, visual scoring after about 3 weeks vs untreated controls, 100% = plants have died
Text: as §2, §4

[17] = tested on: Lolium rigidum Gaudin (LOLRI); experiment: Pre-emergence herbicidal action; settings: 320 g/ha, visual scoring after about 3 weeks vs untreated controls, 100% = plants have died
Text: as §2, §4

[18] = tested on: Pharbitis purpurea (PHBPU); experiment: Pre-emergence herbicidal action; settings: 320 g/ha, visual scoring after about 3 weeks vs untreated controls, 100% = plants have died
Text: as §2, §4

[19] = tested on: Abutilon theophrasti (ABUTH); experiment: Pre-emergence herbicidal action; settings: 320 g/ha, visual scoring after about 3 weeks vs untreated controls, 100% = plants have died
Text: as §2, §4

[20] = tested on: Amaranthus retroflexus (AMARE); experiment: Pre-emergence herbicidal action; settings: 320 g/ha, visual scoring after about 3 weeks vs untreated controls, 100% = plants have died
Text: as §2, §4

Veronica persica (VERPE) [21] = experiment: Pre-emergence herbicidal action; settings: 320 g/ha, visual scoring after about 3 weeks vs untreated controls, 100% = plants have died
Text: as §2, §4

[22] = tested on: Polygonum convolvulus (POLCO); experiment: Post-emergence herbicidal action; settings: 320 g/ha, visual rating after about 3 weeks vs untreated controls, 100% = plants have died
Method: as §1, §2, §3

Avena fatua (AVEFA) = experiment: Post-emergence herbicidal action
Method: as §1, §2, §3

[23] = tested on: Abutilon theophrasti (ABUTH); experiment: Post-emergence herbicidal action
Method: as §1, §2, §3

[24] = tested on: Lolium multiflorum (LOLMU); experiment: Post-emergence herbicidal action; settings: 80 g of a.i./ha, comparative test
Method: as §1, §2, §3

[25] = tested on: Pharbitis purpurea (PHBPU); experiment: Post-emergence herbicidal action; settings: 320 g/ha, visual rating after about 3 weeks vs untreated controls, 100% = plants have died
Method: as §1, §2

[26] = tested on: harmful plants such as Abutilon theophrasti, Alopecurus myosuroides, Amaranthus retroflexus, Avena fatua, Echinochloa crus-galli, Matricaria inodora, Pharbitis …; experiment: Post-emergence herbicidal action, summary in text; settings: post-emergence treatment
Method: as §1
In this case, for example, in the post-emergence process, the compounds No. 1-001 and 111-001 have very good herbicidal activity (80% to 100% herbicidal action) against harmful plants such as Abutilon theophrasti, Alopecurus myosuroides, Amaranthus retroflexus, Avena fatua, Echinochloa crus-galli, Matricaria inodora, Pharbitis purpurea, Setaria viridis, Stellaria media, Veronica persica and Viola tricolor at an application rate of 0.32 kg of active substance or less per hectare. At the same time, some compounds according to the invention leave graminaceous crops such as barley, wheat, rye, millet/sorghum, maize, rice or sugarcane virtually undamaged when applied by the post-emergence method, even at high active compound dosages. Some substances are additionally also benign to dicotyledonous crops such as soya, cotton, oilseed rape or sugarbeet.

[27] = 80 g of a.i./ha, comparative test
[28] = 320 g/ha, visual rating after about 3 weeks vs untreated controls, 100% = plants have died

SMILES	Herbicidal action against ECHCG [1]	Post-emergence action ECHCG [1]	Herbicidal action against SETVI (Setaria viridis (SETVI) [2])	Post-emergence action SETVI (Setaria viridis (SETVI) [2])	Herbicidal action against MATIN [3]	Post-emergence action STEME (Stellaria media (STEME) [4])	Herbicidal action against ECHCG [6]	Herbicidal action against POLCO [7]	Pre-emergence action POLCO [7]	Herbicidal action against SETVI (Setaria viridis (SETVI) [8])	Pre-emergence action SETVI (Setaria viridis (SETVI) [8])	Herbicidal action against MATIN [9]	Pre-emergence action MATIN [9]	Herbicidal action against STEME (Stellaria media (STEME) [10])	Pre-emergence action STEME (Stellaria media (STEME) [10])	Herbicidal action against ALOMY [11]	Pre-emergence action ALOMY [11]	Herbicidal action against VIOTR (Viola tricolor (VIOTR) [12])	Pre-emergence action VIOTR (Viola tricolor (VIOTR) [12])	Post-emergence action AMARE [13]	other results
FC(F)(F)Oc1cccc(Oc2nc(C3CC3)cc(-n3cc(C(F)(F)F)cn3)n2)c1 [II-004]	40%	90%	50%	90%	40%	80%	30%	50%	90%	100%	100%	80%	100%	70%	100%	70%	90%	100%	100%	90%	Herbicidal action against ALOMY [5, 27]: 50%; Post-emergence action ALOMY [5, 28]: 80%; Post-emergence action VIOTR (Viola tricolor (VIOTR) [14]): 90%; Post-emergence action VERPE (Veronica persica (VERPE) [15]): 90%; Pre-emergence action DIGSA [16]: 100%; Pre-emergence action LOLRI [17]: 90%; Pre-emergence action PHBPU [18]: 80%; Pre-emergence action ABUTH [19]: 80%; Pre-emergence action AMARE [20]: 100%; Pre-emergence action VERPE (Veronica persica (VERPE) [21]): 100%
FC(F)(F)c1cnn(-c2cc(C3CC3)nc(Oc3csc(C(F)(F)F)c3)n2)c1 [IV-001]	70%	80%	70%	80%	80%	100%	70%	20%	80%	90%	90%	90%	100%	90%	100%	70%	100%	90%	90%	100%	Post-emergence action POLCO [22]: 90%; Herbicidal action against AVEFA (Avena fatua (AVEFA); [27]): 60%; Post-emergence action AVEFA (Avena fatua (AVEFA); [28]): 80%; Herbicidal action against ABUTH [23, 27]: 80%; Post-emergence action ABUTH [23, 28]: 90%; Post-emergence action MATIN [3, 28]: 90%; Herbicidal action against STEME (Stellaria media (STEME) [4]; [27]): 100%; Herbicidal action against LOLMU [24]: 40%; Pre-emergence action ECHCG ([6]; 320 g/ha, visual scoring after about 3 weeks vs untreated controls, 100% = plants have died): 100%; Post-emergence action PHBPU [25]: 80%; Post-emergence action VIOTR (Viola tricolor (VIOTR) [14]): 90%; Post-emergence action VERPE (Veronica persica (VERPE) [15]): 100%; Pre-emergence action AMARE [20]: 100%; Pre-emergence action VERPE (Veronica persica (VERPE) [21]): 90%; herbicidal action against harmful plants (in words) [26]: good herbicidal action
